Test results taken from patent US20240216395A1, “19-NOR C3,3-DISUBSTITUTED C21 -N-PYRAZOLYL STEROID FOR USE IN TREATING MAJOR DEPRESSIVE DISORDER AND […]” (priority 2021, published 2024).

Test system: nondependent, recreational users of CNS depressants
Test: Abuse potential study: MOAA/S sedation scores (dose selection and main study)
Type: in vivo, human
Settings: dose selection, 60, 80 or 90 mg
Protocol: The first part of the study, dose selection, was a 3-cohort, randomized, double-blind, placebo-controlled, dose-escalation design to identify 2 doses higher than Compound (1)'s anticipated therapeutic dose (30 mg) to carry forward into the main study (FIG. 30A-30B) (U.S. Department of Health and Human Services Food and Drug Administration, Center for Drug Evaluation and Research (CDER). Assessment of abuse potential of drugs: guidance for industry. January, 2017; Griffiths R R, et al. Drug Alcohol Depend. 2003; 70(3):S41-54; Schoedel K, Sellers E. Clin Pharmacol Ther. 2008; 83(4):622-626). The 2 doses were selected based on their safety and tolerability in the dose selection phase, as assessed during sentinel dosing (described below) by the safety and tolerability endpoints (described below). […]
MOAA/S scores were assessed before dose administrations and at multiple time points (1, 2, 3, 4, 5, 6, 7, 8, 10, 12, and 24 hours) after dosing using a 6-point scale, ranging from 0 (no response after painful trapezius squeeze) to 5 (responds readily to name spoken in a normal tone; Table 18). Electrocardiogram measures and the C-SSRS were assessed during screening, admission, at Day 3, and/or at early termination, and AEs/SAEs were assessed on an ongoing basis during enrollment in the study. […]

C[C@@]1(O)CC[C@H]2[C@H](CC[C@@H]3[C@@H]2CC[C@]2(C)[C@@H](C(=O)Cn4cc(C#N)cn4)CC[C@@H]32)C1 [Compound (1), 1-(2-((3R,5R,8R,9R,10S,13S,14S,17S)-3-hydroxy-3,13-dimethylhexadecahydro-1H-cyclopenta[a]phenanthren-17-yl)-2-oxoethyl)-1H-pyrazole-4-carbonitrile]
Time for all MOAA/S scores to return to baseline score of 5: ≤ 8 hours postdose
MOAA/S score (mild sedation) in 1 to 4 participants of at least 1 cohort (2-7 hours postdose): 2-4
